Laboratory results as given in patent US11746103B2, “ALK-5 inhibitors and uses thereof” (Sumitomo Pharma Oncology, Inc., priority 2020, dated 2023).
Like-named read-outs stand apart in the source and are kept apart here.

Columns and labels:
[1] = system: TGF-beta induced SMAD signaling; experiment: RDSR (RD SMAD reporter) Cellular Reporter Assay; format: cell-based; settings: Homo sapiens, 200 pg/ml rhTGF-beta1, 24 h
Text: TGF-β signaling is triggered when the activated TGF-β homodimer binds to the TGF-β receptor 2, which in turn leads to the recruitment and phosphorylation of TGF-β receptor 1 (ALK5). Activated TGF-β receptor 1 phosphorylates the signal transduction molecules SMAD2 and SMAD3. These bind to common mediator SMAD4 and translocate to the nucleus where they bind to short conserved DNA sequences called the SMAD binding element and induce the transcription of various target genes. […] Certain example compounds were also or alternatively assayed using the RDSR Cellular Reporter Assay. Overview and Design: The RD SMAD reporter (RDSR) cell line was generated by stabily integrating the SMAD cellular reporter plasmid (Promega, pGL4.48[luc2P/SBE/Hygro]) into the human rhabdomyosarcoma cell line RD (ATCC, CCL-136). Once SMAD signaling is triggered, with, for example, the addition of TGF-β 1, receptor activated SMADs bind the SMAD binding elements (SBEs) leading to the expression of intracellular luciferase. To determine the potency of compounds at inhibiting TGF-beta induced SMAD signaling, the RDSR reporter system was utilized. The rhabdomyosarcoma line RD (ATCC, CCL-136) was transfected with a SMAD reporter vector (Promega, E3671) and a polyclonal stable cell line was selected using hygromycin B. The transfected vector contains three copies of a SMAD-binding element (SBE) that drive transcription of the luciferase reporter gene luc2P (Photinus pyralis). luc2P is a synthetically-derived luciferase sequence with humanized codon optimization that is designed for high expression and reduced anomalous transcription. The luc2P gene contains hPEST, a protein destabilization sequence, which allows luc2P protein levels to respond more quickly than those of luc2 to induction of transcription. The intracellular luciferase is quantified by the addition of equal volume (100 μl) of ONE-GLO substrate (Promega, E6120) and read within ten minutes on the Envision plate reader. The stable RDSR cell line was tested by evaluating the response to human TGF-β1 (R&D Systems, 7754-BH-005) as well as human myostatin (R&D Systems, 788-G8-010/CF) in a concentration dependent manner after twenty-four hours of stimulation. […] For compound evaluation, the tool drugs Galunisertib and Vactosertib were included as positive controls. The tool drugs and the compounds of the invention being tested were all incubated with cells for one hour at 37° C. before stimulation with 200 pg/ml rhTGF-beta1 for twenty-four hours. The activity of the reporter was determined with the addition of ONE-GLO (Promega) substrate and luminescence counts collected on the Envision plate reader (Perkin Elmer). […] The activity of compounds of the invention as determined using this method are reported in the third column of Table 1, below.

[2] = system: TGF-β1 mediated alpha-SMA expression in primary human bronchial fibroblasts derived from IPF patients; experiment: Fibroblast to Myofibroblast Transformation (FMT) assay
Experimental: To test the ability of compounds of the invention to inhibit the TGF-β1 dependent transition of fibroblasts to myofibroblasts in a relevant disease model of IPF, a study was carried out using an FMT assay employing lung fibroblasts from IPF patients. In this model the transition of fibroblasts to myofibroblasts is determined by the expression of the biomarker alpha smooth muscle actin (SMA).
Each drug concentration condition was evaluated in biological duplicates. One hour after compound addition, cells were stimulated with 1.25 ng/ml of TGF-01 and cultured for 72 hours thereafter. At the end of 72 hours cells were fixed using formaldehyde. The results were generated using high content imaging after staining cells using the nuclear stain DAPI as well as evaluation of the expression of alpha SMA. […] As a negative control 0.1% DMSO was used matching the DMSO concentration in treated wells.

[3] = target: ALK-5 (Homo sapiens (Human), UniProt P36897); experiment: LanthaScreen Eu Kinase Binding Assay, ALK-5; settings: for IC50: read-out: Kinase Inhibition: ALK5 IC50
ALK-5, sequence (P36897 34-503): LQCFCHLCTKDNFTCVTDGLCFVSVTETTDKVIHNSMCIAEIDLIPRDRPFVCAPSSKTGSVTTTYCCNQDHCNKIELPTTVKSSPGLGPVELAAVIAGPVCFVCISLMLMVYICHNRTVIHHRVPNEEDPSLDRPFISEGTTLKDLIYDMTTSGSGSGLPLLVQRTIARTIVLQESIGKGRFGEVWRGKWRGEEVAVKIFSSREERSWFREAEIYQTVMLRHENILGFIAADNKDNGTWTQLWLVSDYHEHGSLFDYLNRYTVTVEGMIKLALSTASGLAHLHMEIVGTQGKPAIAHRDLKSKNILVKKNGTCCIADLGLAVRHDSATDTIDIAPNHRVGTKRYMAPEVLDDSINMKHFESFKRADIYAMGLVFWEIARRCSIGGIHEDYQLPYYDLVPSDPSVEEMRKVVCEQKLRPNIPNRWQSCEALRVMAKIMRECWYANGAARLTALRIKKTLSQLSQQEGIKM
Experimental: Activity determinations and selectivity were conducted by Thermo Fisher Scientific “SelectScreen™ Biochemical Kinase Profiling Service” using their “LanthaScreen™ Eu Kinase Binding Assay Screening” (www.thermofisher.com/selectscreen). Binding of an Alexa Fluor™ conjugate or “tracer” to a kinase is detected by addition of a Eu-labeled anti-tag antibody. Binding of the tracer and antibody to a kinase results in a high degree of FRET, whereas displacement of the tracer with a kinase inhibitor results in a loss of FRET. This assay is carried out by mixing the compound tested with the reagents and reading, no development step is required. Life Technologies' Kinase Tracers are based on ATP-competitive kinase inhibitors, making them suitable for detection of any compounds that bind to the ATP site. Inhibitors that bind the ATP site include both Type I kinase inhibitors, which bind solely to the ATP site, and Type II inhibitors (e.g., Gleevec®/Imatinib, Sorafenib, BIRB-796), which bind to both the ATP site and a second site often referred to as the allosteric site. […] For 10 point titrations, 3-fold serial dilutions are conducted from the starting concentration (see Table 2 below). [table] All Kinase/Antibody Mixtures are diluted to a 2× working concentration in the specified kinase buffer. The 4× AlexaFluor labeled Tracer is prepared in Kinase Buffer. Bar-coded, low volume, white 384-well plate (Greiner Cat. #784207) […] 2. 3.84 μL—Kinase Buffer […] 4. 4.0 μL—4× Tracer 5. 30-second plate shake 6. 60-minute incubation at room temperature 7. […] The LanthaScreen Eu Kinase Binding Assay data is analyzed using the equations in Table 3 for each set of data points. [table] Data generated were plotted using the graphing software XLfit from IDBS. The dose response curve is curve fit to model number 205.

[4] = system: phospho-SMAD2 (Ser 465/467) in A549 xenograft; experiment: A549 xenograft study, tumor phospho SMAD2; format: in vivo, mouse; settings: for phospho SMAD2 levels in tumor (normalized to GAPDH): 10, 50, 75, 100 mg/Kg; for inhibition at 10 mg/kg / inhibition at 50 mg/kg / inhibition at 75 mg/kg / inhibition at 100 mg/kg: Mus musculus, A549, oral gavage, 3 hours after administration, read-out: Percent of p-SMAD2 inhibition compared to vehicle control
Text: To test compounds for in vivo on-target activity (ALK5/TGF-βR1 inhibition), a study was completed using an A549 murine xenograft model. This model was utilized since an ALK5 inhibitor is expected to reduce the amount of the key TGF-β signaling molecule phosphoSMAD2 in the A549 xenograft cells. The TGF-β mediated phosphorylation in A549 cells takes place at amino acid residue four hundred and sixty-five and four hundred and sixty-seven (both are serine residues).
Eight-week old, female athymic nude mice (Charles River) were injected with approximately four million A549 cells (ATCC, CCL-185). The cells employed were harvested and resuspended in plain RPMI media (no phenol red added) and matrigel (Fisher Scientific) at a one to one ratio. Injection comprised a two-hundred microliter sample injected into the right hind flank of each mouse. Resulting tumors were measured every three days by caliper and as tumors reached an average of one hundred and thirty millimeters cubed, mice were randomized in groups of three.
All compounds were resuspended in 1-Methyl-2-pyrrolidinone (10%) plus 20% Solutol in water (90%). Galunisertib was included as a positive control and given at seventy-five milligram per kilogram to three mice. The drug suspensions were sonicated for fifteen minutes to generate a fine particle suspension before being administered to a subject. Mice were dosed (per oral gavage) at dose levels of one hundred mg/Kg, seventy-five mg/Kg, fifty mg/Kg and ten mg/Kg with three mice in each group. A vehicle control group with three mice was used to establish the baseline level of phospho SMAD2 in the tumor xenograft. Three hours after drug administration, tumors were harvested and stored at negative eighty degrees Celsius until further processing. The phospho SMAD2 levels were determined using the BioPlex Pro anti phospho-SMAD2 (Ser 465/467) beads from Biorad and this signal was normalized using GAPDH levels from each sample (Milliplex MAP GAPDH beads, Sigma/Millipore). Tumors were processed according to kit instructions and beads analyzed using the MagPix instrument by Luminex.

[5] = read-out: RD-SMAD reporter activity

Row | Structure (SMILES) | Kinase Selectivity: ALK2 IC50/ ALK5 IC50 [3] | IC50 [3] [nM] | IC50 [1, 5] [nM] | also measured
1 | Cc1cccc(-c2nn3c(c2-c2ccnc4ccc(C(N)=O)cc24)CCC3)n1 [Galunisertib, reference compound] |  |  |  | IC50 ([1]; control compounds, read-out: RDSR reporter activity): ~365 nM; LogM IC50 αSMA ([2]; donor IPF05): −5.7 LogM; Max PIN (%) ([2]; donor IPF05): 100.8%; LogM IC50 αSMA ([2]; donor IPF06): −5.9 LogM; Max PIN (%) ([2]; donor IPF06): 104.4%; potentially toxic (>25% loss of nuclei) ([2]; donor IPF06): >−5.5; LogM IC50 αSMA ([2]; donor IPF08): −5.9 LogM; Max PIN (%) ([2]; donor IPF08): 99.6%
2 | Cc1cccc2c(Nc3ccnc(Nc4ccc(N5CCOCC5)c(Cl)c4)n3)cnnc12 [EX-12, N2-(3-chloro-4-morpholino-phenyl)-N4-(8-methyl-cinnolin-4-yl)-pyrimidine-2,4-diamine] | (++) (10<ALK2/ALK5<100=[++]) | < 10 | < 100 | observed level of p-SMAD2 as percent of vehicle-only group ([4]; 100 mg/Kg): 45.5%; phospho SMAD2 levels in tumor (normalized to GAPDH) [4]: reduced the phopho SMAD2 levels (p-SMAD2) in a dose dependent fashion; inhibition at 10 mg/kg [4]: 19.9%; inhibition at 50 mg/kg [4]: 35.8%; inhibition at 75 mg/kg [4]: 40.1%; inhibition at 100 mg/kg ([4]; 100 mg/Kg): 55.5%
3 | COC(=O)c1ccc2c(c1)NC(=O)/C2=C(\Nc1ccc(N(C)C(=O)CN2CCN(C)CC2)cc1)c1ccccc1 [Nintedanib, reference compound] |  |  |  | LogM IC50 αSMA ([2]; donor IPF05): −6.5 LogM; Max PIN (%) ([2]; donor IPF05): 92.1%; LogM IC50 αSMA ([2]; donor IPF06): −6.3 LogM; Max PIN (%) ([2]; donor IPF06): 86.8%; LogM IC50 αSMA ([2]; donor IPF08): −6.4 LogM; Max PIN (%) ([2]; donor IPF08): 88.2%
4 | Cc1cccc2c(Nc3ccnc(Nc4ccc(N5CCN(C)CC5)cc4)n3)cnnc12 [EX-33, N4-(8-methylcinnolin-4-yl)-N2-(4-(4-methylpiperazin-1-yl)phenyl)pyrimidine-2,4-diamine] | (++) (10<ALK2/ALK5<100=[++]) | < 10 | < 100 | 
5 | Cc1cccc2c(Nc3ccnc(Nc4cc(F)cc(CN5CCN(C)CC5)c4)n3)cnnc12 [EX-42, N2-(3-fluoro-5-((4-methylpiperazin-1-yl)methyl)phenyl)-N4-(8-methylcinnolin-4-yl)pyrimidine-2,4-diamine] | (+) (≤10=[+]) | < 10 | 100 to 1000 | 
6 | Cc1cccc2c(Nc3ccnc(Nc4ccc(C(C)(C)C)cc4)n3)cnnc12 [EX-54, N2-(4-(tert-butyl)phenyl)-N4-(8-methylcinnolin-4-yl)pyrimidine-2,4-diamine] | (++) (10<ALK2/ALK5<100=[++]) | 10 to 100 | 100 to 1000 | 
7 | Cc1cccc2c(Nc3nc(Nc4ccc(N5CCN(C)CC5)cc4)ncc3F)cnnc12 [EX-32, 5-fluoro-N4-(8-methylcinnolin-4-yl)-N2-(4-(4-methylpiperazin-1-yl)phenyl)pyrimidine-2,4-diamine] | (++) (10<ALK2/ALK5<100=[++]) | 10 to 100 | 100 to 1000 | 
8 | Cc1cccc2c(Nc3ccnc(Nc4ccc(CN5CCNCC5)cc4)n3)cnnc12 [EX-20, N4-(8-methyl-cinnolin-4-yl)-N2-(4-(piperazin-1-yl-methyl)phenyl)pyrimidine-2,4-diamine] | (++) (10<ALK2/ALK5<100=[++]) | < 10 | < 100 | 
9 | Cc1cccc2c(Nc3ccnc(Nc4ccc(Cl)cc4)n3)cnnc12 [EX-29, N2-(4-chlorophenyl)-N4-(8-methylcinnolin-4-yl)pyrimidine-2,4-diamine] | (++) (10<ALK2/ALK5<100=[++]) | < 10 | < 100 | 
10 | Cc1cccc2c(Nc3ccnc(Nc4cccc(C5CCNCC5)c4)n3)cnnc12 [EX-36, N4-(8-methylcinnolin-4-yl)-N2-(3-(piperidin-4-yl)phenyl)pyrimidine-2,4-diamine] | (+) (≤10=[+]) | < 10 | < 100 | 
11 | Cc1cccc2c(Nc3ccnc(Nc4ccc(N5CCOCC5)c(F)c4)n3)cnnc12 [EX-13, N2-(3-fluoro-4-morpholino-phenyl)-N4-(8-methylcinnolin-4-yl)-pyrimidine-2,4-diamine] | (++) (10<ALK2/ALK5<100=[++]) | < 10 | < 100 | phospho SMAD2 levels in tumor (normalized to GAPDH) [4]: reduced the phopho SMAD2 levels (p-SMAD2) in a dose dependent fashion; inhibition at 10 mg/kg [4]: 37.9%; inhibition at 50 mg/kg [4]: 76.3%; inhibition at 75 mg/kg [4]: 76.8%; inhibition at 100 mg/kg ([4]; 100 mg/Kg): 75.7%
12 | Cc1cccc2c(Nc3ccnc(Nc4ccc(N5CCN(C)CC5)c(Cl)c4)n3)cnnc12 [EX-34, N2-(3-chloro-4-(4-methyl-piperazin-1-yl)-phenyl)-N4-(8-methylcinnolin-4-yl)pyrimidine-2,4-diamine] | (++) (10<ALK2/ALK5<100=[++]) | < 10 | < 100 | 
